Source: patent publication US20080171709A1, “Pharmaceutical Composition Comprising An Antiviral Agent, An Antitumoral Agent Or An Antiparasitic Agent, And An Active Agent Selected Among Carveol, Thymol, Eugenol, Borneol,And Carvacrol” (priority 2005, published 2008)
In brackets after ≈: the same amount, converted by molar mass. Read-outs that look alike come from different tables or passages of the source.

What was measured:
[1] = tested on: P815 (murin mastocytoma) cell line; experiment: MTT cytotoxicity on P815 cell line; format: cell-based; conditions: Mus musculus, P815, read-out: IC50 (concentration inducing cytotoxicity for 50% of treated tumor cells)
Protocol: (§1) […] tests were carried out on HEP (human larynx carcinoma), BSR (hamster kidney carcinoma) and P815 (murin mastocytoma) cell lines cultivated on DMEM medium (Dulbecco's modified eagles medium) supplemented with 5% of fetal bovine serum (Gibco BRL, France), 1% of penicillin- streptomycin-neomycin, 0.2% of sodium bicarbonate. These percentages are given as ratio of the weight to the global volume of the medium.
(§2) In these compositions, excipient is agar solution.
(§3) IC50 have been determined.

[2] = tested on: HEP (human larynx carcinoma) cell line; experiment: MTT cytotoxicity on HEP cell line; format: cell-based
Protocol: as §1, §2, §3

[3] = tested on: BSR (hamster kidney carcinoma) cell line; experiment: MTT cytotoxicity on BSR cell line; format: cell-based; conditions: Mesocricetus auratus, read-out: IC50 (concentration inducing cytotoxicity for 50% of treated tumor cells)
Protocol: as §1, §2, §3

[4] = tested on: HEP, BSR and P815 cell lines; experiment: cells
Protocol: as §1, §2, §3

[5] = read-out: IC50 (concentration inducing cytotoxicity for 50% of treated tumor cells)

Row | IC50 ([4]; Mus musculus, P815, read-out: IC50 of doxorubicin used alone) | Compound | IC50 [1] | IC50 [2, 5] | IC50 [3] | cytotoxic effects towards cell lines at the concentration used in the tested compositions [4] | IC50 ([2]; read-out: IC50 (concentration inducing cytotoxicity for 50% of treated tumor cells), HEP, carvacrol, thymol or carveol alone) | IC50 ([3]; BSR, carvacrol, thymol or carveol alone)
1 |  | C=C(C)C1CC=C(C)C(O)C1 (mixture of isomers) [Carveol, carveol] | 400 µg/mL | 400 µg/mL | 400 µg/mL | without any cytotoxic effects |  | 
2 |  | Cc1ccc(C(C)C)cc1O [Carvacrol, carvacrol] | 300 µg/mL (≈ 2000 µM) |  |  | without any cytotoxic effects | 300 µg/mL (≈ 2000 µM) | 300 µg/mL (≈ 2000 µM)
3 | 15 to 25 µg/mL (≈ 27.6 to 46 µM) | COc1cccc2c1C(=O)c1c(O)c3c(c(O)c1C2=O)C[C@@](O)(C(=O)CO)C[C@@H]3O[C@H]1C[C@H](N)[C@H](O)[C@H](C)O1 [Doxorubicin, doxorubicin, reference compound] | 15 µg/mL (≈ 27.6 µM) | 20 µg/mL (≈ 36.8 µM) | 25 µg/mL (≈ 46 µM) |  |  | 
4 |  | Cc1ccc(C(C)C)c(O)c1 [Thymol, thymol] | 300 µg/mL (≈ 2000 µM) | 300 µg/mL (≈ 2000 µM) | 300 µg/mL (≈ 2000 µM) | without any cytotoxic effects |  | 
